Consider three compounds from US8293776B2, “Compositions and methods for treating inflammatory conditions of the bowel” (The Regents of the University of Michigan, priority 2008, dated 2012).

“Also recorded” adds a separate entry of the source.

One data set concerns DSS colitis mice. Kind of data set: DSS colitis in mice, transanal treatment: body weight, fecal blood, histology, apoptosis. The conditions noted are these: for weight loss after 7 days (body weight change, FIG. 10B): 2.5% DSS, DCL and Losartan 10× (2,500 μg per dose), Candesartan 1× (250 μg per dose), mean±SD, placebo −15.81±6.59; for weight loss after 7 days (body weight change, FIG. 10B) / period before developing heme positive stools: transanal daily; for weight loss after 1 week (percentage change from baseline body weight) / period before developing heme positive stools: DSS; for weight loss after 1 week (percentage change from baseline body weight): transanal daily 7 days, placebo 15.8±6.5, P<0.001 versus placebo; for period before developing heme positive stools: placebo 5.64±1.22 days. Type of data set: in vivo, C57BL/6 mice. The procedure: Animals. Specific pathogen-free male, 8-week old C57BL/6 mice (Taconic Farms Inc, Germantown, N.Y.) were maintained in a 12-h night rhythm at 23° C. and a relative humidity of 40-60%. Animals were fed standard rodent chow (LabDiet 5001Rodent Diet, PMI Nutrition International, LLC, Brentwood, Mo.) ad libitum. All experiments were approved by the University Committee on Use and Care of Animals at the University of Michigan. Experimental colitis design. Dextran sodium sulfate (DSS) was administered through drinking water for 7 days. Mice were randomly divided into 5 groups. In the DSS+placebo group, mice were given […] (total volume 0.25 ml) each day as a control. […] A[…]-A were given at 10-fold higher doses (losartan and […]: 10 mg/kg/day, candesartan: 1 mg/kg/day) than typically given systemically, and daily dosing was continued for 7 days. The study drugs were administered using a blunt needle via the […] route. Testing conducted during development of embodiments of the invention characterized that this amount of drug evenly coated the entire colon. A separate group of mice contained naive mice as an additional control group which received plain drinking water ad libitum, and received only water (0.25 ml, […]) without AT 1 aR-A. Harvesting. Mice were euthanized 7 days after DSS by carbon dioxide asphyxiation. […] Formalin preserved sections of distal colon were preserved in paraffin, sectioned transversely (5 μm) and stained with hematoxylin and eosin (H&E). The remaining colon was immediately processed for mucosal cell isolation. Assessment of colitis. The body weight of each mouse, stool characteristics, and intestinal bleeding were recorded. All animals were evaluated daily. Occult bleeding was tested using a hemoccult-card test (Beckman Coulter Inc, Fullerton, Calif.). Histologic grading of colitis was performed in a masked fashion (investigator blinded to the study group) according to previously described methods. (See, e.g., Spencer et al., et al. Dig Dis Sci 2007; 52:1060-70). Crypt shortening and distortion, together with inflammatory infiltrative thickening of the lamina propria, were assigned a score 0 (normal) through 4 (complete loss of crypt, ulceration, and severe thickening of lamina propria). The individual colitis score (0-4) from four quadrants of a left-sided colonic section were summed, such that the maximum score for a given section was 16, and the minimum score was 0. The mean of at least 2 sections were assessed in this manner for each mouse. Epithelial cell apoptosis assays. A terminal deoxynucleotidyl transferase biotin-dUTP nick end labeling (TUNEL) staining method was used to detect apoptosis, according to manufacturer's instructions (APOPTAG PLUS Peroxidase InSitu Apoptosis Detection Kit, Chemicon International Inc, Temecula, Calif.), with slight modification. Slides were incubated with only one-third of the recommended concentration of TdT enzyme, in order to avoid over-staining. Assessment of apoptosis consisted of separate counting of all TUNEL positive EC in all well oriented crypts and villi separately, and dividing the total number of counted apoptotic cells per number of analyzed crypts and villi, respectively. Apoptotic Index in the region of villi is expressed as the number of TUNEL positive cells per one villus. The addition of both crypt and villus apoptotic indices is expressed as the apoptotic index per crypt-villus complex (at 20× magnification).

Data set [1] is described as follows: Blood pressure and heart rate by tail-cuff in DSS mice after transanal treatment. As to conditions: day 6 of DSS; for systolic blood pressure change (Delta BP, post − pre treatment): 1 hour before and 2 hr after treatment; for heart rate change: compared with naïve group. Type of data set: in vivo, C57BL/6 mice. An excerpt: Measurements of Blood Pressure and Heart Rate. […] The system was designed to perform all functions automatically, including a programmable routine of cuff inflation and deflation, analysis and assignment of pulse rate and blood pressure, and recording of data electronically. To avoid variations in blood pressures, results were expressed using % Delta Blood Pressure (percent change in systolic pressures prior to and after treatment). Heart rate was also expressed as the change in rate before and after final dosing of […] drug/placebo.

For data set [2] the following is noted: mouse, in vivo. An excerpt:
The scores were compared to the Naïve cohort.
Colonic mucosal and mesenteric blood flow measurements.

Data set [3] relates to mucosal RNA of regulatory factors associated with inflammatory bowel disease. Nature of the data set: Mucosal RNA of regulatory factors by RT-PCR, DSS mice, oral administration. Type of data set: in vivo. As to conditions: oral therapy, 7 days. The procedure:
Experiments were conducted during development of embodiments of the invention in order to determine if AT1a antagonists or derivatives thereof could treat signs and symptoms of inflammatory bowel disease (e.g., inflammatory conditions of the intestine) when administered orally. Materials and methods were used as described in Example 3 with the following exceptions. AT1a antagonists or derivatives thereof were suspended in water. Each dose was given via the oral route using a blunt tipped needle by gavage directly into the stomach of each mouse. Dosing was daily in a single administration over a period of seven days. Realtime PCR was utilized to measure the abundance of mucosal RNA of several regulatory factors associated with inflammatory bowel disease. Factors studied were: TNF-α(tumor necrosis factor-alpha); interleukin-1b (IL-1b); IL-6; IL-10; transforming growth factor-beta (TGF-b) and Foxp3 (a T-cell regulatory factor). […] Realtime PCR was also utilized to measure the abundance of mucosal RNA of several additional regulatory factors associated with inflammatory bowel disease. IL-12p40, the regulatory factor for interleukin-12 (IL-12), and a key regulator for the up-regulation of interferon gamma (IFN-g); IFN-g; […]

For data set [4] the following is noted: in vivo; cited from earlier work.
In data set [5] the test system is AT1a receptor. As to conditions: cited from earlier work.
Data set [6] concerns the target T1, AT1a receptor (Rattus norvegicus, UniProt P25095).
T1 construct: expressed in transfected cells; host or cells: HepG2 (HepG2-AR), stably transfected
T1 sequence (P25095 1-359): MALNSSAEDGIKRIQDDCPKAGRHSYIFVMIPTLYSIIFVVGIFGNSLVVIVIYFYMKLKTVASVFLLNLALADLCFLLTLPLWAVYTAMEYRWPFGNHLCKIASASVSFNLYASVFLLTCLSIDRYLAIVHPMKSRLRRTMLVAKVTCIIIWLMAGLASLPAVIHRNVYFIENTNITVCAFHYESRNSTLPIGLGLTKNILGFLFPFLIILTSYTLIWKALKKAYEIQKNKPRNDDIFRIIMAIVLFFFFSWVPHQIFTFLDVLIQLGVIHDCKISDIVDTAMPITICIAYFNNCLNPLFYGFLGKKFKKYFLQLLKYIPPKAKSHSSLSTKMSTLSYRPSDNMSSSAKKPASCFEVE
Kind of data set: Ang II-dependent NF-κB-luciferase reporter assay in HepG2-AR cells. In kind it is cell-based. The conditions noted are these: Ang II 1 μM, 16 hours, Ang II alone = 100% induction, read-out: inhibition of NF-κB activation. On the technique in general: A reporter such as luciferase makes a cellular process visible.
Text: In vitro assessment of AT1aR antagonism. […] This model makes use of the fact that Ang II-dependent stimulation of the AT1a receptor results in rapid activation of the NF-κB transcription factor. In this model, HepG2-AR cells, which stably express the AT1a receptor, were transiently transfected with an NF-κB-luciferase reporter plasmid and a control renilla plasmid (to correct for transfection efficiency). […] Cells were harvested and the luciferase/renilla ratio determined using the Promega Dual Luciferase Assay Kit. […] Loss of Ang II-dependent luciferase induction (measured by luminometer; LMax; Molecular Devices), due to the presence of receptor blockade was then calculated and used to indicate the extent of successful blockade of the AT1a receptor signaling pathway.
HepG2-AR cells, which stably express the AT1a receptor, were transiently transfected with an NF-κB-luciferase reporter plasmid and a control renilla plasmid (to correct for transfection efficiency). […] Cells were harvested and the luciferase/renilla ratio determined using a luciferase assay kit (e.g., Promega Dual Luciferase Assay Kit). […] The fold induction in the presence of varying doses of inhibitor was then converted to a percentage of this maximal induction.

For data set [7], the target named is AT1a receptor. As to conditions: read-out: IC50 against the binding of Ang II to the AT1a receptor; cited from earlier work.
Another data set relates to Ang I-infused dogs. As to conditions: i.v., 1 mg/kg; cited from earlier work.

As to `CCCCc1ncc(CO)n1Cc1ccc(-c2ccccc2-c2nn[nH]n2)cc1` [DCL, des-chloro losartan], in the data set with DSS colitis mice, the “weight loss after 7 days (body weight change, FIG. 10B)” value is listed as −2.02±4.34%; the “weight loss after 1 week (percentage change from baseline body weight)” value was found to be 2.02±4.34%; the “period before developing heme positive stools” value came out at 7.00 ± 1.4 days. In addition, in data set [1], the “systolic blood pressure change (Delta BP, post − pre treatment)” value is “did not significantly change BP; also recorded: no change in systolic blood pressure” and the heart rate change entry is on record as “not significantly different”. In data set [2], the “colonic blood flow at the mucosal level” value was “failed to change” and the mesenteric blood flow result is “failed to change”. Also, the “mucosal RNA of ADAM17” value in data set [3] is “marked decline in ADAM17”. For the same compound, the oral activity result in data set [4] is “lacks oral activity”. The “receptor blockade function compared with losartan” value in the data set on AT1a receptor [5] was “nearly the same receptor blockade function as losartan”.

On to `CCOc1nc2cccc(C(=O)O)c2n1Cc1ccc(-c2ccccc2-c2nnn[nH]2)cc1` [candesartan], for which, in the data set with DSS colitis mice, the “weight loss after 7 days (body weight change, FIG. 10B)” value is reported as −0.63±1.63%; the “weight loss after 1 week (percentage change from baseline body weight)” value was found to be 0.63±1.63%; the “period before developing heme positive stools” value was determined as 8.0 ± 0.0 days. Moreover, in data set [1], the “systolic blood pressure change (Delta BP, post − pre treatment)” value was “decline in systolic BP” and the heart rate change result is recorded as “declined significantly”. Also, the “systolic blood pressure change (Delta BP, post − pre treatment)” value in data set [1] (listed as Candesartan) was “resulted in a decline”. Moreover, the “systolic blood pressure change (Delta BP, post − pre treatment)” value in data set [1] (listed as candasartan) was “significant decline in blood pressure”. In data set [2], the “colonic blood flow at the mucosal level” value came out at 0.92±0.20 and the mesenteric blood flow came to 1.56±0.33.

As for `CCCCc1nc(Cl)c(CO)n1Cc1ccc(-c2ccccc2-c2nn[nH]n2)cc1` [losartan], the inhibition at 60 µM on AT1a receptor [6] was 90%. In the data set on DSS colitis mice, the “weight loss after 7 days (body weight change, FIG. 10B)” value is reported as 0.07±2.50%; the “weight loss after 1 week (percentage change from baseline body weight)” value is 0.07±2.50%; the “period before developing heme positive stools” value was determined as 6.8 ± 2.7 days. In [1], the “systolic blood pressure change (Delta BP, post − pre treatment)” value is “significant decline in blood pressure” and the heart rate change result was “not significantly different”. In addition, the “systolic blood pressure change (Delta BP, post − pre treatment)” value in [1] (listed as Losartan) is “decline in systolic BP; also recorded: resulted in a decline”. For the same compound, in [2], the “colonic blood flow at the mucosal level” value worked out at 0.88±0.32 and the mesenteric blood flow is reported as 1.97±0.58. Besides, in data set [3], the “mucosal RNA of IL-12p40, IFN-g, IL-17, AT1aR and ADAM17” value was “marked decline in several of these factors”. For the same compound, on AT1a receptor [7], the IC50 is 50 nM. Besides, the “time a ≧20 mmHg drop in mean arterial blood pressure (MABP) was maintained” value in the data set on Ang I-infused dogs was 30 min.

By inhibition is commonly meant how much of the control response was suppressed. By IC50 is commonly meant the midpoint of a concentration-inhibition curve.
